Laboratory results: patent US20260176289A1, “SMALL MOLECULE INHIBITORS OF KRAS PROTEINS” (Merck Sharp & Dohme LLC, priority 2022, published 2026)

Assays:
Type in all cases: biochemical
[1] = biological target: T1, KRAS WT (amino acids 1-169) (Homo sapiens, UniProt P01116); assay: SOS-catalyzed nucleotide exchange assay (Procedure B, BODIPY FL GDP displacement), KRAS WT; conditions: read-out: KRAS WT GNE IC50
T1 construct: made in house; host or cells: E. coli
Procedure: (§1) Procedure for SOS-Catalyzed Nucleotide Exchange Assay for KRAS-G12C/D/V/WT (Procedure B)
(§2) Recombinant KRAS G12C (amino acids 1-169, SEQ ID NO:9), KRAS G12D (amino acids 1-169, SEQ ID NO: 10), KRAS G12V (amino acids 1-169, SEQ ID NO: 11), KRAS WT (amino acids 1-169, SEQ ID NO:12) and SOS1 (amino acids 564-1049, SEQ ID NO: 13) proteins were expressed in E. coli and purified by affinity chromatography. To prepare each BODIPY™ FL GDP-bound KRAS protein, 50 μM KRAS proteins were incubated with 0.5 mM BODIPY™ FL GDP (Invitrogen, G22360) in a loading buffer (20 mM Tris-HCl pH 7.5, 50 mM NaCl, 1 mM DTT and 2.5 mM EDTA) for 1 hour on ice. After the incubation, MgCl2 was added to a final concentration of 10 mM, followed by an incubation at room temperature for 30 minutes. The mixtures were allowed to pass through a NAP-5 column to remove free nucleotides and purified BODIPY™ FL GDP-bound KRAS G12C, G12D, G12V and WT proteins were used for compound evaluation.
(§3) The inhibitory activity of compounds on recombinant KRAS is measured by the displacement of the bound BODIPY™ GDP. Specifically, 2.5 nM of each BODIPY™ FL GDP-bound KRAS complex was incubated with various concentrations of compound in a reaction buffer (20 mM Tris-HCl pH 7.5, 100 mM NaCl, 1 mM MgCl2, 2 mM DTT, 0.1% Tween 20) at 25° C. for 1 hour. After the incubation, recombinant SOS1 and GMPPNP (Jena Bioscience GmbH, NU-401) were added and incubated at room temperature for 30 minutes to proceed SOS1-dependent GDP-GTP exchange reaction on KRAS. Displacement of BODIPY™ FL GDP by Guanosine-5′-[(β,γ)-imido]triphosphate, Tetralithium salt (GMPPNP) was measured by calculating the ratio of fluorescence intensities of BODIPY™ FL before and after the exchange reaction. Percent Inhibition was calculated by setting the fluorescence ratio from the reaction without test compound (DMSO control) and the fluorescence ratio from the reaction without SOS1 and GMPPNP as 0% and 100% inhibition, respectively. Dose response curves were analyzed using a 4-parameter logistic model to calculate IC50 values.

[2] = biological target: T2, KRAS G12D (amino acids 1-169) (Homo sapiens, UniProt P01116, G12D); assay: SOS-catalyzed nucleotide exchange assay (Procedure B, BODIPY FL GDP displacement), KRAS G12D; conditions: read-out: KRAS G12D GNE IC50
T2 construct: made in house; host or cells: E. coli
T2 sequence (P01116 with tags, fused parts or gaps isoform P01116-2 G12D): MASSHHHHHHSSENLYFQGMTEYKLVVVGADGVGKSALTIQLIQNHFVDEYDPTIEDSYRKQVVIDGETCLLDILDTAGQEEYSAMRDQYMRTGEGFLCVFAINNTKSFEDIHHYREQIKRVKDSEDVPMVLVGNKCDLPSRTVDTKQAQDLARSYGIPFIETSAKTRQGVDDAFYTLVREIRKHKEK
Procedure: as §1, §2, §3

[3] = biological target: T3, KRAS G12C (amino acids 1-169) (Homo sapiens, UniProt P01116, G12C); assay: SOS-catalyzed nucleotide exchange assay (Procedure B, BODIPY FL GDP displacement), KRAS G12C; conditions: read-out: KRAS G12C GNE IC50
T3 construct: made in house; host or cells: E. coli
T3 sequence (P01116 with tags, fused parts or gaps isoform P01116-2 G12C): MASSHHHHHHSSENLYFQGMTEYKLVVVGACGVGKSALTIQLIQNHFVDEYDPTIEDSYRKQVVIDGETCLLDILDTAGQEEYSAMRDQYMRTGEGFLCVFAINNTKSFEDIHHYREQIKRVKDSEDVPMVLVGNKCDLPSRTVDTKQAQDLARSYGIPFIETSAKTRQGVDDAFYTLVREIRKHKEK
Procedure: as §1, §2, §3

[4] = biological target: T4, KRAS G12V (amino acids 1-169) (Homo sapiens, UniProt P01116, G12V); assay: SOS-catalyzed nucleotide exchange assay (Procedure B, BODIPY FL GDP displacement), KRAS G12V; conditions: read-out: KRAS G12V GNE IC50
T4 construct: made in house; host or cells: E. coli
T4 sequence (P01116 with tags, fused parts or gaps isoform P01116-2 G12V): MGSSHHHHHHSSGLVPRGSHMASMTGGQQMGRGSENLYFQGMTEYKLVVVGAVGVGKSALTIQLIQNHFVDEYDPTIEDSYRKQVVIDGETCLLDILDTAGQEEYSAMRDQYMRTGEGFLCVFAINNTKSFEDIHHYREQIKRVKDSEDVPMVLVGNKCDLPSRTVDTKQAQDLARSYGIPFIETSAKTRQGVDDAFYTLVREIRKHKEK
Procedure: as §1, §2, §3

T1 sequence (P01116 with tags, fused parts or gaps isoform P01116-2): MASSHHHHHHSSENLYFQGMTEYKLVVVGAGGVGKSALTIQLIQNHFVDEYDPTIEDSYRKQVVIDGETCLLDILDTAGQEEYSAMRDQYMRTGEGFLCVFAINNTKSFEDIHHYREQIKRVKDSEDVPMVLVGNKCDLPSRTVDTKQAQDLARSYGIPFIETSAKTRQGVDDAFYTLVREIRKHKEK

IC50 [1] | IC50 [2] | IC50 [3] | IC50 [4] | SMILES
34.1 nM | 18.7 nM | 44.4 nM | 38.1 nM | C[C@@]1(O)COCCN(c2nc(OC[C@@]34CCCN3C[C@H](F)C4)nc3sc4c(-c5c6c(cc7[nH]ncc57)CCC6)nccc4c23)C1 [Ex-111, (6S)-4-(2-(((2R,7aS)-2-fluorotetrahydro-1H-pyrrolizin-7a(5H)-yl)methoxy)-8-(1,5,6,7-tetrahydrocyclopenta[f]in-dazol-4-yl)pyrido[4′,3′:4,5]thieno [2,3-d]pyrimidin-4-yl)-6-methyl-1,4-oxazepan-6-ol]
150 nM | 88.5 nM | 177 nM | 123 nM | CC1Cc2cc3[nH]ncc3c(-c3nccc4c3sc3nc(OC[C@@]56CCCN5C[C@H](F)C6)nc(N5CCOC[C@@](C)(O)C5)c34)c2C1 (stereo partly drawn) [Ex-113, (6S)-4-(2-(((2R,7aS)-2-fluorotetrahydro-1H-pyrrolizin-7a(5H)-yl)methoxy)-8-(6-methyl-1,5,6,7-tetrahydrocyclopenta[f]in-dazol-4-yl)pyrido[4′,3′:4,5]thieno [2,3-d]pyrimidin-4-yl)-6-methy1-1,4-oxazepan-6-ol]
58 nM | 32.6 nM | 40.1 nM | 66.7 nM | Cc1cc2[nH]ncc2c(-c2nccc3c2sc2nc(OC[C@@]45CCCN4C[C@H](F)C5)nc(N4CCOC[C@@](C)(O)C4)c23)c1C(C)C [Ex-137, (6S)-4-(2-(((2R, 7aS)-2-fluorotetra-hydro-1H-pyrrol-izin-7a(5H)-yl)meth-oxy)-8-(5-isopropyl-6-methyl-1H-ind-azol-4-yl)pyrido [4′,3′:4,5]thieno[2,3-d]pyrimidin-4-yl)-6-methyl-1,4-oxaze-pan-6-ol]
1350 nM | 1470 nM | 1920 nM | 2370 nM | Cc1cc2[nH]nc(I)c2c(-c2nccc3c2sc2nc(OC[C@@]45CCCN4C[C@H](F)C5)nc(N4CCOC[C@@](C)(O)C4)c23)c1C(F)(F)F [Ex-149, (6S)-4-(2-(((2R,7aS)-2-fluorotetrahydro-1H-pyrrolizin-7a(5H)-yl)methoxy)-8-(3-iodo-6-methyl-5-(trifluoromethyl)-1H-indazol-4-yl)pyrido[4′,3′:4,5]thieno[2,3-d]pyrimidin-4-yl)-6-methyl-1,4-oxazepan-6-ol]
690 nM | 393 nM | 572 nM | 1180 nM | C#Cc1n[nH]c2cc(C)c(C(F)(F)F)c(-c3nccc4c3sc3nc(OC[C@@]56CCCN5C[C@H](F)C6)nc(N5CCOC[C@@](C)(O)C5)c34)c12 [Ex-151, (6S)-4-(8-(3-ethynyl-6-methyl-5-(trifluoromethyl)-1H-indazol-4-yl)-2-(((2R,7aS)-2-fluorotetrahydro-1H-pyrrolizin-7a(5H)-yl)methoxy)pyrido[4′,3′:4,5]thieno[2,3-d]pyrimidin-4-yl)-6-methyl-1,4-oxazepan-6-ol]
26.9 nM | 7.18 nM | 15.4 nM | 15.5 nM | C#Cc1c(Cl)cc2[nH]ncc2c1-c1nccc2c1sc1nc(OC[C@@]34CCCN3C[C@H](F)C4)nc(N3CCOC[C@@](C)(O)C3)c12 [Ex-158, (6S)-4-(8-(6-chloro-5-ethynyl-1H-indazol-4-yl)-2-(((2R,7aS)-2-fluorotetrahydro-1H-pyrrolizin-7a(5H)-yl)methoxy)pyrido[4′,3′:4,5]thieno[2,3-d]pyrimidin-4-yl)-6-methyl-1,4-oxazepan-6-ol]
1480 nM | 1320 nM | 787 nM | 758 nM | Cc1cc2[nH]ncc2c(-c2nccc3c2sc2nc(OC[C@@]45CCCN4C[C@H](F)C5)nc(NC45CC(C4)C5)c23)c1C(F)(F)F [Ex-181, N-(bicyclo[1.1.1]pentan-1-yl)-2-(((2R,7aS)-2-fluoro-tetrahydro-1H-pyrrolizin-7a(5H)-yl)-methoxy)-8-(6-methyl-5-(trifluoromethyl)-1H-indazol-4-yl)pyrido [4′,3′:4,5]thieno[2,3-d] pyrimidin-4-amine]
2250 nM | 3010 nM | 1360 nM | 2200 nM | Cc1cc2[nH]ncc2c(-c2nccc3c2sc2nc(OC[C@@]45CCCN4C[C@H](F)C5)nc(N)c23)c1C(F)(F)F [Ex-189, 2-(((2R,7aS)-2-fluoro-tetrahydro-1H-pyrrolizin-7a(5H)-yl)methoxy)-8-(6-methyl-5-(trifluoromethyl)-1H-indazol-4-yl)pyrido [4′,3′:4,5]thieno[2,3-d] pyrimidin-4-amine]

Continued, compound first:

SMILES | IC50 [1] | IC50 [2] | IC50 [3] | IC50 [4]
C[C@@]1(O)COCCN(c2nc(OC[C@@]34CCCN3C[C@H](F)C4)nc3sc4c(-c5c6c(cc7[nH]ncc57)CCC6C5CC5)nccc4c23)C1 (stereo partly drawn) [Ex-104, (6S)-4-(8-(5-cyclopropyl-1,5,6,7-tetrahydrocyclopenta[f]in-dazol-4-yl)-2-(((2R,7aS)-2-fluorotetrahydro-1H-pyrrolizin-7a(5H)-yl)methoxy)pyrido[4′,3′:4,5]thieno[2,3-d]pyrimidin-4-yl)-6-methyl-1,4-oxazepan-6-ol] | 71.5 nM | 43.9 nM | 168 nM | 60 nM
COC1c2c(cc3[nH]ncc3c2-c2nccc3c2sc2nc(OC[C@@]45CCCN4C[C@H](F)C5)nc(N4CCOC[C@@](C)(O)C4)c23)CC1(F)F (stereo partly drawn) [Ex-110, (6S)-4-(8-(6,6-difluoro-5-methoxy-1,5,6,7-tetrahydrocyclopenta[f]in-dazol-4-yl)-2-(((2R,7aS)-2-fluorotetrahydro-1H-pyrrolizin-7a(5H)-yl)methoxy)pyrido[4′,3′:4,5]thi-no[2,3-d]pyrimidin-4-yl)-6-methyl-1,4-oxazepan-6-ol] | 47.5 nM | 37.7 nM | 57.7 nM | 43 nM
CC1(C)Cc2cc3[nH]ncc3c(-c3nccc4c3sc3nc(OC[C@@]56CCCN5C[C@H](F)C6)nc(N5CCOC[C@@](C)(O)C5)c34)c2C1 [Ex-112, (6S)-4-(8-(6,6-dimethyl-1,5,6,7-tetrahydrocyclopenta[f]in-dazol-4-yl)-2-(((2R,7aS)-2-fluorotetrahydro-1H-pyrrolizin-7a(5H)-yl)methoxy)pyrido[4′,3′:4,5]thi-eno[2,3-d]pyrimidin-4-yl)-6-methyl-1,4-oxazepan-6-ol] | 473 nM | 274 nM | 518 nM | 402 nM
C#CC1CCc2cc3[nH]ncc3c(-c3nccc4c3sc3nc(OC[C@@]56CCCN5C[C@H](F)C6)nc(N5CCOC[C@@](C)(O)C5)c34)c21 (stereo partly drawn) [Ex-166, (6S)-4-(8-(5-ethyn-yl-1,5,6,7-tetrahydro-cyclopenta[f]indazol-4-yl)-2-(((2R,7aS)-2-fluorotetrahydro-1H-pyrrolizin-7a(5H)-yl)methoxy)-pyrido[4′,3′:4,5]thieno[2,3-d]pyr-imidin-4-yl)-6-meth-yl-1,4-oxazepan-6-ol] | 12.4 nM | 6.65 nM | 18 nM | 15.8 nM
Cc1cc2[nH]ncc2c(-c2nccc3c2sc2nc(OC[C@@]45CCCN4C[C@H](F)C5)nc(N4CCOCC(C)C4)c23)c1C(F)(F)F (stereo partly drawn) [Ex-182, 4-(2-(((2R,7aS)-2-fluoro-tetrahydro-1H-pyrrolizin-7a(5H)-yl)methoxy)-8-(6-methyl-5-(trifluorometh-yl)-1H-indazol-4-yl)pyrido [4′,3′:4,5]thieno[2,3-d]pyr-imidin-4-yl)-6-methyl-1,4-oxazepane] | 2190 nM | 3630 nM | 1260 nM | 3200 nM
Cc1cc2[nH]ncc2c(-c2nccc3c2sc2nc(OC[C@@]45CCCN4C[C@H](F)C5)nc(N4C[C@H](O)C[C@H]4C)c23)c1C(F)(F)F [Ex-183, (3R,5R)-1-(2-(((2R,7aS)-2-fluorotetrahydro-1H-pyrrolizin-7a(5H)-yl)methoxy)-8-(6-methyl-5-(trifluoromethyl)-1H-indazol-4-yl)pyrido[4′,3′: 4,5]thieno[2,3-d]pyrimi-din-4-yl)-5-methylpyrrol-idin-3-ol] | 2990 nM | 2190 nM | 2880 nM | 4640 nM
